Results taken from US20260258064A1 (SIRONAX LTD., priority 2023, published 2026).
pIC50: −log10 of the molar value.

Target: T1, SARM1 (50-724) (Homo sapiens, UniProt Q6SZW1)
T1 construct: Purified SARM1 (50-724) with a final concentration of 2 nM was pre-incubated with a test compound
T1 sequence (Q6SZW1 50-724): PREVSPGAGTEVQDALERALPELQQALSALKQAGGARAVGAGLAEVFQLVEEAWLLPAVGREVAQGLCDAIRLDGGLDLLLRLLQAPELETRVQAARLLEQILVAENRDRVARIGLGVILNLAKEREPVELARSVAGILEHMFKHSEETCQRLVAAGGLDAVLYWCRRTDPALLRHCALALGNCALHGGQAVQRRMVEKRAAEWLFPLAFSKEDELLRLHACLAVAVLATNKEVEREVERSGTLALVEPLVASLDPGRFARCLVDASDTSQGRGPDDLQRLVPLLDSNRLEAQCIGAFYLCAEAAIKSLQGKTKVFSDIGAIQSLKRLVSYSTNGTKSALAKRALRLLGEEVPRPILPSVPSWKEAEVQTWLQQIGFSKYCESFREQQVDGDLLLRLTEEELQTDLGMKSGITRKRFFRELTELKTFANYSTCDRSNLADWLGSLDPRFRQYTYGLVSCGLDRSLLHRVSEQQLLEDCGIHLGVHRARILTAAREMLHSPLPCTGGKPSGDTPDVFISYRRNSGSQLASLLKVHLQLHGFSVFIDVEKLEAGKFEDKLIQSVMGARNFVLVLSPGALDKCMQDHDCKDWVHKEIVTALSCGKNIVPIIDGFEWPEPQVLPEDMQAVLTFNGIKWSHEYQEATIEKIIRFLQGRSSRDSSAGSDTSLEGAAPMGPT
Assay: SARM1 (50-724) enzymatic assay (LC-MS/MS)
Assay type: biochemical
Conditions: Purified SARM1 (50-724) 2 nM, NMN as activator, NAD+ as substrate, 1 h at room temperature, read-out: IC50 (SARM1 inhibitory activity)
Protocol: An enzymatic assay was performed in a 384-well plate using Dulbecco's phosphate-buffered saline (PBS) as the reaction buffer. Purified SARM1 (50-724) with a final concentration of 2 nM was pre-incubated with a test compound at […] final assay concentration for 15 min at room temperature. The reaction was initiated by adding a mixture of […] nicotinamide mononucleotide (NMN) as activator and […] NAD^+ as substrate. After 1 h of incubation at room temperature, the reaction was terminated with 10 times volume of 70% acetonitrile, and then centrifuged at 3800 rpm for 10 min. The samples were analyzed using LC-MS/MS after diluted to a proper concentration by 10 mM ammonium acetate (pH 9.75).
In Table 2, activity is provided as follows: A: IC50≤100 nM; B: 100 nM<IC50≤500 nM; C: 500 nM<IC50≤1000 nM; D: IC50>1000 nM.

Row | SMILES | pIC50
1 | CS(=O)(=O)Cc1nnc(-c2nc3c(F)c(C(F)(F)F)ccc3[nH]2)n1-c1cccc(F)c1Cl (racemic) [Compound 195, 2-(4-(2-chloro-3-fluorophenyl)-5-((methylsulfonyl)methyl)-4H-1,2,4-triazol-3-yl)-4-fluoro-5-(trifluoromethyl)-1H-benzo[d]imidazole] | ≥ 7.00
2 | FC(F)(F)O[C@@H]1CCOC[C@H]1n1cnnc1-c1nc2cc(C(F)(F)F)ccc2[nH]1 (racemic) [Compound 239, 2-(4-((3R,4R)-4-(trifluoromethoxy)tetrahydro-2H-pyran-3-yl)-4H-1,2,4-triazol-3-yl)-5-(trifluoromethyl)-1H-benzo[d]imidazole] | ≥ 7.00
3 | CC(c1cc(F)c2[nH]c(-c3nncn3-c3cnccc3C(F)(F)F)nc2c1)c1nccs1 (racemic) [Compound 412, 2-(1-(7-fluoro-2-(4-(4-(trifluoromethyl)pyridin-3-yl)-4H-1,2,4-triazol-3-yl)-1H-benzo[d]imidazol-5-yl)ethyl)thiazole] | ≥ 7.00
4 | C[S+]([O-])Cc1nnc(-c2nc3cc(C(F)(F)F)ccc3[nH]2)n1-c1cccc(Cl)c1Cl (single isomer, unassigned) [Compound 146, 2-(4-(2,3-dichlorophenyl)-5-((methylsulfinyl)methyl)-4H-1,2,4-triazol-3-yl)-5-(trifluoromethyl)-1H-benzo[d]imidazole] | ≥ 7.00
5 | C[S+]([O-])Cc1nnc(-c2nc3cc(C(F)(F)F)ccc3[nH]2)n1-c1cccc(Cl)c1Cl (single isomer, unassigned) [Compound 147, 2-(4-(2,3-dichlorophenyl)-5-((methylsulfinyl)methyl)-4H-1,2,4-triazol-3-yl)-5-(trifluoromethyl)-1H-benzo[d]imidazole] | ≥ 7.00
6 | CS(=O)(=O)Cc1nnc(-c2nc3cc(C(F)(F)F)cc(F)c3[nH]2)n1-c1cccc(F)c1Cl (single isomer, unassigned) [Compound 183, 2-(4-(2-Chloro-3-fluorophenyl)-5-((methylsulfonyl)methyl)-4H-1,2,4-triazol-3-yl)-7-fluoro-5-(trifluoromethyl)-1H-benzo[d]imidazole] | 6.30 to 7.00
7 | CS(=O)(=O)Cc1nnc(-c2nc3cc(C(F)(F)F)cc(F)c3[nH]2)n1-c1cccc(F)c1Cl (single isomer, unassigned) [Compound 184, 2-(4-(2-Chloro-3-fluorophenyl)-5-((methylsulfonyl)methyl)-4H-1,2,4-triazol-3-yl)-7-fluoro-5-(trifluoromethyl)-1H-benzo[d]imidazole] | ≥ 7.00
8 | CS(=O)(=O)Cc1nnc(-c2nc3cc(C(F)(F)F)cc(F)c3[nH]2)n1-c1cccc(Cl)c1Cl (single isomer, unassigned) [Compound 186] | 6.30 to 7.00
9 | CS(=O)(=O)Cc1nnc(-c2nc3cc(C(F)(F)F)cc(F)c3[nH]2)n1-c1cccc(Cl)c1Cl (single isomer, unassigned) [Compound 187, 2-(4-(2,3-Dichlorophenyl)-5-((methylsulfonyl)methyl)-4H-1,2,4-triazol-3-yl)-7-fluoro-5-(trifluoromethyl)-1H-benzo[d]imidazole] | ≥ 7.00
10 | CS(=O)(=O)Cc1nnc(-c2nc3c(F)c(C(F)(F)F)ccc3[nH]2)n1-c1cccc(F)c1Cl (single isomer, unassigned) [Compound 196, 2-(4-(2-chloro-3-fluorophenyl)-5-((methylsulfonyl)methyl)-4H-1,2,4-triazol-3-yl)-4-fluoro-5-(trifluoromethyl)-1H-benzo[d]imidazole] | < 6.00
11 | CS(=O)(=O)Cc1nnc(-c2nc3c(F)c(C(F)(F)F)ccc3[nH]2)n1-c1cccc(F)c1Cl (single isomer, unassigned) [Compound 197, 2-(4-(2-chloro-3-fluorophenyl)-5-((methylsulfonyl)methyl)-4H-1,2,4-triazol-3-yl)-4-fluoro-5-(trifluoromethyl)-1H-benzo[d]imidazole] | ≥ 7.00
12 | O=S1(=O)CC[C@@H](OC(F)(F)F)[C@H](n2cnnc2-c2nc3cc(C(F)(F)F)ccc3[nH]2)C1 (single isomer, unassigned) [Compound 288] | < 6.00
13 | Fc1cc([C@@H]2[C@@H]3COC[C@@H]32)cc2nc(-c3nncn3-c3cnccc3C(F)(F)F)[nH]c12 (single isomer, unassigned) [Compound 349, 7-fluoro-5-(3-oxabicyclo[3.1.0]hexan-6-yl)-2-[4-[4-(trifluoromethyl)-3-pyridyl]-1,2,4-triazol-3-yl]-1H-benzimidazole] | ≥ 7.00
14 | FC(F)(F)c1ccc2[nH]c([C@H]3COC[C@@H]3c3ccccc3)nc2c1 (single isomer, unassigned) [Compound 350] | < 6.00
15 | FC(F)(F)c1ccc2[nH]c([C@H]3COC[C@H]3c3ccccc3)nc2c1 (single isomer, unassigned) [Compound 351] | < 6.00
16 | CC(c1cc(F)c2[nH]c(-c3nncn3-c3cnccc3C(F)(F)F)nc2c1)c1nccs1 (single isomer, unassigned) [Compound 433, 2-(1-(7-fluoro-2-(4-(4-(trifluoromethyl)pyridin-3-yl)-4H-1,2,4-triazol-3-yl)-1H-benzo[d]imidazol-5-yl)ethyl)thiazole] | ≥ 7.00

Row | SMILES | pIC50
17 | CC(c1cc(F)c2[nH]c(-c3nncn3-c3cnccc3C(F)(F)F)nc2c1)c1nccs1 (single isomer, unassigned) [Compound 434, 2-(1-(7-fluoro-2-(4-(4-(trifluoromethyl)pyridin-3-yl)-4H-1,2,4-triazol-3-yl)-1H-benzo[d]imidazol-5-yl)ethyl)thiazole] | ≥ 7.00
18 | Cc1ccc2[nH]c(-c3nccn3C3CCCC3)nc2c1 [Compound 2, 2-(1-cyclopentylimidazol-2-yl)-5-methyl-1H-benzimidazole] | 6.00 to 6.30
19 | Cc1ccc2[nH]c(-c3cncn3C3CCCC3)nc2c1 [Compound 3, 2-(1-cyclopentyl-1H-imidazol-5-yl)-6-methyl-1H-benzo[d]Imi-dazole] | < 6.00
20 | Cc1ccc2[nH]c(-c3ccnn3C3CCCC3)nc2c1 [Compound 4, 2-(2-cyclopentylpyrazol-3-yl)-5-methyl-1H-benzimidazole] | 6.00 to 6.30
21 | Cc1ccc2[nH]c(-c3cccn3C3CCCC3)nc2c1 [Compound 6, 2-(1-cyclopentylpyrrol-2-yl)-5-methyl-1H-benzimidazole] | 6.30 to 7.00
22 | Cc1ccc2[nH]c(-c3ncccc3C3CCCC3)nc2c1 [Compound 7, 2-(3-cyclopentylpyridin-2-yl)-5-methyl-1H-benzo[d]imidazole] | < 6.00
23 | Cc1ccc2[nH]c(C3=C(C4CCCC4)C(=O)OC3)nc2c1 [Compound 8, 3-Cyclopentyl-4-(5-methyl-1H-benzo[d]imidazol-2-yl)furan-2(5H)-one] | < 6.00
24 | Cc1ccc2[nH]c(C3=C(C4CCCC4)COC3=O)nc2c1 [Compound 9, 4-Cyclopentyl-3-(5-methyl-1H-benzo[d]imidazol-2-yl)furan-2(5H)-one] | < 6.00
25 | Cc1ccc2[nH]c(-c3ncnn3C3CCCC3)nc2c1 [Compound 10, 2-(2-cyclopentyl-1,2,4-triazol-3-yl)-5-methyl-1H-benzimidazole] | < 6.00
26 | Cc1ccc2[nH]c(-c3nncn3C3CCCC3)c(CO)c2c1 [Compound 11, [2-(4-cyclopentyl-1,2,4-triazol-3-yl)-5-methyl-1H-indol-3-yl]methanol] | < 6.00
27 | Cc1ccc2[nH]c(-n3c(C4CCCC4)n[nH]c3=O)nc2c1 [Compound 12, 5-cyclopentyl-4-(5-methyl-1H-benzo[d]imidazol-2-yl)-2,4-dihydro-3H-1,2,4-triazol-3-one] | < 6.00
28 | Cc1ccc2[nH]c(C3CCCN3c3cccc(Cl)c3Cl)nc2c1 (centres unmarked) [Compound 13, 2-(1-(2,3-Dichlorophenyl)pyrrolidin-2-yl)-5-methyl-1H-benzo[d]imidazole] | < 6.00
29 | Cc1ccc2[nH]c(-c3n[nH]c(=O)n3C3CCCC3)nc2c1 [Compound 14] | < 6.00
30 | Cc1ccc2[nH]c(-c3cc(CO)cn3C3CCCC3)nc2c1 [Compound 16, (1-Cyclopentyl-5-(5-methyl-1H-benzo[d]imidazol-2-yl)-1H-pyrrol-3-yl)methanol] | 6.00 to 6.30
31 | Cc1ccc2[nH]c(-c3c(CO)ccn3C3CCCC3)nc2c1 [Compound 17, (1-cyclopentyl-2-(5-methyl-1H-benzo[d]imidazol-2-yl)-1H-pyrrol-3-yl)methanol] | < 6.00
32 | Cc1ccc2[nH]c(-c3cc(C#N)cn3C3CCCC3)nc2c1 [Compound 18, 1-cyclopentyl-5-(5-methyl-1H-benzo[d]imidazol-2-yl)-1H-pyrrole-3-carbonitrile] | 6.30 to 7.00
